PubChem BioAssay (NCI)
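Test compounds were applied to cells in 96-well plates for 48 hours at 5 doses. TGI marks complete inhibition of growth.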

How the values were obtained:
Assay in all cases: growth of human tumour cells (NCI), 48 h
[1] = system: 786-0 renal
[2] = system: A498 renal
[3] = system: A549 NSCLC
[4] = system: ACHN renal
[5] = system: BT-549 breast
[6] = system: CAKI-1 renal
[7] = system: CCRF-CEM leukemia
[8] = system: COLO 205 colon
[9] = system: DU-145 prostate
[10] = system: EKVX NSCLC
[11] = system: HCC-2998 colon
[12] = system: HCT-116 colon
[13] = system: HCT-15 colon
[14] = system: HL-60(TB) leukemia
[15] = system: HOP-62 NSCLC
[16] = system: HOP-92 NSCLC
[17] = system: HS 578T breast
[18] = system: HT29 colon
[19] = system: IGROV1 ovarian
[20] = system: K-562 leukemia
[21] = system: KM12 colon
[22] = system: LOX IMVI melanoma
[23] = system: M14 melanoma
[24] = system: MALME-3M melanoma
[25] = system: MCF7 breast
[26] = system: MDA-MB-231 breast
[27] = system: MDA-MB-435
[28] = system: MDA-N
[29] = system: MOLT-4 leukemia
[30] = system: NCI-H226 lung
[31] = system: NCI-H23 lung
[32] = system: NCI-H460 lung
[33] = system: NCI-H522 lung
[34] = system: NCI/ADR-RES ovarian
[35] = system: OVCAR-3 ovarian
[36] = system: OVCAR-4 ovarian
[37] = system: OVCAR-5 ovarian
[38] = system: OVCAR-8 ovarian
[39] = system: PC-3 prostate
[40] = system: RPMI-8226 leukemia
[41] = system: RXF 393 renal
[42] = system: SF-268 CNS
[43] = system: SF-295 CNS
[44] = system: SF-539 CNS
[45] = system: SK-MEL-2 melanoma
[46] = system: SK-MEL-28 melanoma
[47] = system: SK-MEL-5 melanoma
[48] = system: SK-OV-3 ovarian
[49] = system: SN12C renal
[50] = system: SNB-19 CNS
[51] = system: SNB-75 CNS
[52] = system: SW-620 colon
[53] = system: T-47D breast
[54] = system: TK-10 renal
[55] = system: U251 CNS
[56] = system: UACC-257 melanoma
[57] = system: UACC-62 melanoma
[58] = system: UO-31 renal
[59] = system: SR leukemia

In the case of `CS(=O)(=O)N1CC(CCl)c2ccc(NO)cc21` (centres undefined), the TGI [1] was 28 µM, the TGI [2] was 31.5 µM and the TGI [3] was greater than 100 µM. For the same compound, the TGI [4] was 21 µM, the TGI [5] was 25.1 µM and the TGI [6] was 27.6 µM. For the same compound, the TGI [7] was 5.1 µM, the TGI [8] was greater than 57.2 µM and the TGI [9] was greater than 100 µM. For the same compound, the TGI [10] was 32.5 µM, the TGI [11] was 28.5 µM and the TGI [12] was 32 µM. It also gave a TGI [13] of 28.6 µM, a TGI [14] of 20 µM and a TGI [15] of 47.4 µM. The TGI [16] was 27.9 µM, the TGI [17] was 60 µM and the TGI [18] was 29.4 µM. The TGI [19] was 29 µM, the TGI [20] was 8.58 µM and the TGI [21] was 36.2 µM. For the same compound, the TGI [22] was 29.4 µM, the TGI [23] was 34.3 µM and the TGI [24] was 37.7 µM. The TGI [25] was 35.5 µM, the TGI [26] was 30.5 µM and the TGI [27] was 35.4 µM. It also gave a TGI [28] of 32.4 µM, a TGI [29] of 19 µM and a TGI [30] greater than 78 µM. The TGI [31] was 18 µM, the TGI [32] was 34.4 µM and the TGI [33] was 16.3 µM. The TGI [34] was 22.9 µM, the TGI [35] was 40.7 µM and the TGI [36] was 40.7 µM. It also gave a TGI [37] of 40.5 µM, a TGI [38] of 27.9 µM and a TGI [39] of 39.5 µM. The TGI [40] was 16 µM, the TGI [41] was 10.9 µM and the TGI [42] was 22.5 µM. For the same compound, the TGI [43] was 61.9 µM, the TGI [44] was 26.1 µM and the TGI [45] was 41.3 µM. The TGI [46] was 40.3 µM, the TGI [47] was 28.2 µM and the TGI [48] was greater than 31.6 µM. The TGI [49] was 32.6 µM, the TGI [50] was greater than 86.4 µM and the TGI [51] was 32.3 µM. For the same compound, the TGI [52] was greater than 50.4 µM, the TGI [53] was 60.1 µM and the TGI [54] was 51.1 µM. The TGI [55] was 32.8 µM, the TGI [56] was 40.6 µM and the TGI [57] was 26.5 µM. The TGI [58] was 16.5 µM.

Compound `CCOC(=O)N/N=C(/N)c1cccc(Br)c1` has a TGI [1] greater than 100 µM, a TGI [3] greater than 100 µM and a TGI [4] greater than 100 µM. For the same compound, the TGI [5] was greater than 100 µM, the TGI [6] was greater than 100 µM and the TGI [7] was greater than 100 µM. It also gave a TGI [8] greater than 100 µM, a TGI [9] greater than 100 µM and a TGI [10] greater than 100 µM. For the same compound, the TGI [11] was greater than 100 µM, the TGI [12] was greater than 100 µM and the TGI [13] was greater than 100 µM. The TGI [14] was greater than 100 µM, the TGI [15] was greater than 100 µM and the TGI [17] was greater than 100 µM. It also gave a TGI [18] greater than 100 µM, a TGI [19] greater than 100 µM and a TGI [20] greater than 100 µM. The TGI [21] was greater than 100 µM, the TGI [22] was greater than 100 µM and the TGI [23] was greater than 100 µM. The TGI [24] was greater than 100 µM, the TGI [25] was greater than 100 µM and the TGI [26] was greater than 100 µM. For the same compound, the TGI [28] was greater than 100 µM, the TGI [29] was greater than 100 µM and the TGI [31] was greater than 100 µM. The TGI [32] was greater than 100 µM, the TGI [33] was greater than 100 µM and the TGI [34] was greater than 100 µM. The TGI [35] was greater than 100 µM, the TGI [36] was greater than 100 µM and the TGI [37] was greater than 100 µM. For the same compound, the TGI [38] was greater than 100 µM, the TGI [39] was greater than 100 µM and the TGI [41] was greater than 100 µM. It also gave a TGI [42] greater than 100 µM, a TGI [43] greater than 100 µM and a TGI [44] greater than 100 µM. For the same compound, the TGI [45] was greater than 100 µM, the TGI [47] was greater than 100 µM and the TGI [48] was greater than 100 µM. The TGI [49] was greater than 100 µM, the TGI [50] was greater than 100 µM and the TGI [51] was greater than 100 µM. The TGI [59] was greater than 100 µM, the TGI [53] was greater than 100 µM and the TGI [54] was greater than 100 µM. It also gave a TGI [56] greater than 100 µM, a TGI [57] greater than 100 µM and a TGI [58] greater than 100 µM.
